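Abbreviation: GI50, concentration required for 50% inhibition of growth. TGI: total growth inhibition.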
How the values were obtained:
Assay in all cases: NCI-60 cell line screen, 384-well format
786-0 renal = tested on: 786-0 renal
A498 renal = tested on: A498 renal
A549 NSCLC = tested on: A549 NSCLC
ACHN renal = tested on: ACHN renal
BT-549 breast = tested on: BT-549 breast
CAKI-1 renal = tested on: CAKI-1 renal
CCRF-CEM leukemia = tested on: CCRF-CEM leukemia
COLO 205 colon = tested on: COLO 205 colon
DU-145 prostate = tested on: DU-145 prostate
EKVX NSCLC = tested on: EKVX NSCLC
HCC-2998 colon = tested on: HCC-2998 colon
HCT-116 colon = tested on: HCT-116 colon
HCT-15 colon = tested on: HCT-15 colon
HL-60(TB) leukemia = tested on: HL-60(TB) leukemia
HOP-62 NSCLC = tested on: HOP-62 NSCLC
HOP-92 NSCLC = tested on: HOP-92 NSCLC
HS 578T breast = tested on: HS 578T breast
HT29 colon = tested on: HT29 colon
IGROV1 ovarian = tested on: IGROV1 ovarian
KM12 colon = tested on: KM12 colon
LOX IMVI melanoma = tested on: LOX IMVI melanoma
M14 melanoma = tested on: M14 melanoma
MALME-3M melanoma = tested on: MALME-3M melanoma
MCF7 breast = tested on: MCF7 breast
MDA-MB-231 breast = tested on: MDA-MB-231 breast
MDA-MB-435 melanoma = tested on: MDA-MB-435 melanoma
MDA-MB-468 breast = tested on: MDA-MB-468 breast
MOLT-4 leukemia = tested on: MOLT-4 leukemia
NCI-H226 lung = tested on: NCI-H226 lung
NCI-H23 lung = tested on: NCI-H23 lung
NCI-H322M lung = tested on: NCI-H322M lung
NCI-H460 NSCLC = tested on: NCI-H460 NSCLC
NCI-H522 lung = tested on: NCI-H522 lung
NCI/ADR-RES ovarian = tested on: NCI/ADR-RES ovarian
OVCAR-3 ovarian = tested on: OVCAR-3 ovarian
OVCAR-4 ovarian = tested on: OVCAR-4 ovarian
OVCAR-5 ovarian = tested on: OVCAR-5 ovarian
OVCAR-8 ovarian = tested on: OVCAR-8 ovarian
PC-3 prostate = tested on: PC-3 prostate
RPMI-8226 leukemia = tested on: RPMI-8226 leukemia
RXF 393 renal = tested on: RXF 393 renal
SF-268 CNS = tested on: SF-268 CNS
SF-295 CNS = tested on: SF-295 CNS
SF-539 CNS = tested on: SF-539 CNS
SK-MEL-28 melanoma = tested on: SK-MEL-28 melanoma
SK-MEL-5 melanoma = tested on: SK-MEL-5 melanoma
SK-OV-3 ovarian = tested on: SK-OV-3 ovarian
SN12C renal = tested on: SN12C renal
SNB-19 CNS = tested on: SNB-19 CNS
SNB-75 CNS = tested on: SNB-75 CNS
SR leukemia = tested on: SR leukemia
SW-620 colon = tested on: SW-620 colon
T-47D breast = tested on: T-47D breast
TK-10 renal = tested on: TK-10 renal
U251 glioblastoma = tested on: U251 glioblastoma
UACC-257 melanoma = tested on: UACC-257 melanoma
UACC-62 melanoma = tested on: UACC-62 melanoma
UO-31 renal = tested on: UO-31 renal

## Nc1cccc2c1C(=O)N(C1CCC(=O)NC1=O)C2=O (stereo not given)
786-0 renal
  GI50: > 100 µM
  TGI: > 100 µM
A498 renal
  GI50: > 100 µM
  TGI: > 100 µM
A549 NSCLC
  GI50: > 100 µM
  TGI: > 100 µM
ACHN renal
  GI50: > 100 µM
  TGI: > 100 µM
BT-549 breast
  GI50: > 100 µM
  TGI: > 100 µM
CAKI-1 renal
  GI50: > 100 µM
  TGI: > 100 µM
CCRF-CEM leukemia
  GI50: > 100 µM
  TGI: > 100 µM
COLO 205 colon
  GI50: > 100 µM
  TGI: > 100 µM
DU-145 prostate
  GI50: > 100 µM
  TGI: > 100 µM
EKVX NSCLC
  GI50: > 100 µM
  TGI: > 100 µM
HCC-2998 colon
  GI50: > 100 µM
  TGI: > 100 µM
HCT-116 colon
  GI50: > 100 µM
  TGI: > 100 µM
HCT-15 colon
  GI50: > 100 µM
  TGI: > 100 µM
HL-60(TB) leukemia
  GI50: > 100 µM
  TGI: > 100 µM
HOP-62 NSCLC
  GI50: > 100 µM
  TGI: > 100 µM
HOP-92 NSCLC
  GI50: > 100 µM
  TGI: > 100 µM
HS 578T breast
  GI50: > 100 µM
  TGI: > 100 µM
HT29 colon
  GI50: > 100 µM
  TGI: > 100 µM
IGROV1 ovarian
  GI50: > 100 µM
  TGI: > 100 µM
KM12 colon
  GI50: > 100 µM
  TGI: > 100 µM
LOX IMVI melanoma
  TGI: > 100 µM
M14 melanoma
  GI50: > 100 µM
  TGI: > 100 µM
MALME-3M melanoma
  GI50: > 100 µM
  TGI: > 100 µM
MCF7 breast
  GI50: > 100 µM
  TGI: > 100 µM
MDA-MB-231 breast
  GI50: > 100 µM
  TGI: > 100 µM
MDA-MB-435 melanoma
  GI50: > 100 µM
  TGI: > 100 µM
MDA-MB-468 breast
  GI50: > 100 µM
  TGI: > 100 µM
MOLT-4 leukemia
  GI50: > 100 µM
  TGI: > 100 µM
NCI-H226 lung
  GI50: > 100 µM
  TGI: > 100 µM
NCI-H23 lung
  GI50: > 100 µM
  TGI: > 100 µM
NCI-H322M lung
  GI50: > 100 µM
  TGI: > 100 µM
NCI-H460 NSCLC
  GI50: > 100 µM
  TGI: > 100 µM
NCI-H522 lung
  GI50: > 100 µM
  TGI: > 100 µM
NCI/ADR-RES ovarian
  GI50: > 100 µM
  TGI: > 100 µM
OVCAR-3 ovarian
  GI50: > 100 µM
  TGI: > 100 µM
OVCAR-4 ovarian
  GI50: > 100 µM
  TGI: > 100 µM
OVCAR-5 ovarian
  GI50: > 100 µM
  TGI: > 100 µM
OVCAR-8 ovarian
  GI50: > 100 µM
  TGI: > 100 µM
PC-3 prostate
  GI50: > 100 µM
  TGI: > 100 µM
RPMI-8226 leukemia
  GI50: 22.9 µM
  TGI: > 100 µM
RXF 393 renal
  GI50: > 100 µM
  TGI: > 100 µM
SF-268 CNS
  GI50: > 100 µM
  TGI: > 100 µM
SF-295 CNS
  GI50: > 100 µM
  TGI: > 100 µM
SF-539 CNS
  GI50: > 100 µM
  TGI: > 100 µM
SK-MEL-28 melanoma
  GI50: > 100 µM
  TGI: > 100 µM
SK-MEL-5 melanoma
  GI50: > 100 µM
  TGI: > 100 µM
SK-OV-3 ovarian
  GI50: > 100 µM
  TGI: > 100 µM
SN12C renal
  GI50: > 100 µM
  TGI: > 100 µM
SNB-19 CNS
  GI50: > 100 µM
  TGI: > 100 µM
SNB-75 CNS
  GI50: > 100 µM
  TGI: > 100 µM
SR leukemia
  GI50: > 100 µM
  TGI: > 100 µM
SW-620 colon
  GI50: > 100 µM
  TGI: > 100 µM
T-47D breast
  GI50: > 100 µM
  TGI: > 100 µM
TK-10 renal
  GI50: > 100 µM
  TGI: > 100 µM
U251 glioblastoma
  GI50: > 100 µM
  TGI: > 100 µM
UACC-257 melanoma
  GI50: > 100 µM
  TGI: > 100 µM
UACC-62 melanoma
  GI50: > 100 µM
  TGI: > 100 µM
UO-31 renal
  GI50: > 100 µM
  TGI: > 100 µM

Source: PubChem BioAssay (NCI)
